Measured values taken from ChEMBL document CHEMBL1125006, “DNA-directed alkylating agents. 2. Synthesis and biological activity of platinum complexes linked to 9-anilinoacridine” (J Med Chem, 1990).
Activity calls are given as the source filed them. The rule behind the calls is not given here.

These compounds were tested on P388 (assay: Optimal i.p. dose in P388 (murine leukemia) inoculated mice.). Settings: not given.
Format: functional, Mus musculus

Compared with `NCCNCCCCc1ccc(Nc2c3ccccc3nc3ccccc23)cc1`, `NCCNCCCCCc1ccc(Nc2c3ccccc3nc3ccccc23)cc1` is 3.2-fold lower in OD: 65 mg/kg for the first, 20 mg/kg for the second.

First: NCC(CN)CCCCc1ccc(Nc2c3ccccc3nc3ccccc23)cc1
Second: NCC(CN)CCCCCc1ccc(Nc2c3ccccc3nc3ccccc23)cc1
The OD of the first is 1.5-fold higher: 20 mg/kg for the first, 13.3 mg/kg for the second.

`COc1cccc2c(Nc3ccc(CCCC(CN)CN)cc3)c3cccc(C(=O)NCCN(C)C)c3nc12` and `NCC(CN)CCCc1ccc(Nc2c3ccccc3nc3ccccc23)cc1` are the same in OD: 30 mg/kg for the first, 30 mg/kg for the second.

Compared with `NCC(CN)Cc1ccc(Nc2c3ccccc3nc3ccccc23)cc1`, `NCC(CN)CCc1ccc(Nc2c3ccccc3nc3ccccc23)cc1` is 1.5-fold lower in OD: 45 mg/kg for the first, 30 mg/kg for the second.

First: NCCNCCc1ccc(Nc2c3ccccc3nc3ccccc23)cc1
Second: NCCNCCCc1ccc(Nc2c3ccccc3nc3ccccc23)cc1
The OD of the first is 2.2-fold higher: 45 mg/kg for the first, 20 mg/kg for the second.

Same assay, conditions: Mus musculus

Going from “2-{3-[4-(Acridin-9-ylamino)-phenyl]-propyl}-propane-1,3-diammino-dichloroplatinum (II) (HCl) [listing 1 of 2 here]” to “2-{4-[4-(Acridin-9-ylamino)-phenyl]-butyl}-propane-1,3-diammino-dichloroplatinum (II) (HCl) [listing 1 of 2 here]”, the OD rises from 20 mg/kg to 30 mg/kg (1.5-fold).

First: CISPLATIN [listing 1 of 2 here]
Second: Dichloro(1,3-propanediamine)platinum (II) [listing 1 of 2 here]
The OD of the first is 1.7-fold lower: 5.3 mg/kg for the first, 8.9 mg/kg for the second.

First: 9-[4-(5-Amino-4-aminomethyl-pentyl)-phenylamino]-5-methoxy-acridine-4-carboxylic acid (2-dimethylamino-ethyl)-amide (2HCl) [listing 1 of 2 here]
Second: N,1-{2-[4-(Acridin-9-ylamino)-phenyl]-ethyl}-ethane-1,2-diammino-dichloroplatinum (II) [listing 1 of 2 here]
The OD of the first is 3.4-fold higher: 45 mg/kg for the first, 13.3 mg/kg for the second.

“DICHLORO(ETHYLENEDIAMINE) PLATINUM (II) [listing 1 of 2 here]” showed an OD of 13.3 mg/kg.

What follows are compounds tested on P388 (assay: In vitro inhibition of P388 (murine leukemia) cell growth.). Settings: Mus musculus, P388.
Format: functional, cell-based, Mus musculus

`NCCNCCCCc1ccc(Nc2c3ccccc3nc3ccccc23)cc1` and `NCCNCCCCCc1ccc(Nc2c3ccccc3nc3ccccc23)cc1` are within 1.5-fold of each other in IC50: 7800 nM for the first, 7300 nM for the second.

`NCC(CN)CCCCc1ccc(Nc2c3ccccc3nc3ccccc23)cc1` and `NCC(CN)CCCCCc1ccc(Nc2c3ccccc3nc3ccccc23)cc1` are the same in IC50: 720 nM for the first, 720 nM for the second.

First: NCC(CN)Cc1ccc(Nc2c3ccccc3nc3ccccc23)cc1
Second: NCC(CN)CCc1ccc(Nc2c3ccccc3nc3ccccc23)cc1
The IC50 of the first is 23-fold higher: 7200 nM for the first, 310 nM for the second.

First: NCCNCCc1ccc(Nc2c3ccccc3nc3ccccc23)cc1
Second: NCCNCCCc1ccc(Nc2c3ccccc3nc3ccccc23)cc1
The IC50 of the first is 3.4-fold higher: 12500 nM for the first, 3700 nM for the second.

In the case of `NCC(CN)CCCc1ccc(Nc2c3ccccc3nc3ccccc23)cc1`, the IC50 is reported as 120 nM.

Same assay, conditions: p388

Compared with “DICHLORO(ETHYLENEDIAMINE) PLATINUM (II) [listing 2 of 2 here]”, “9-[4-(5-Amino-4-aminomethyl-pentyl)-phenylamino]-5-methoxy-acridine-4-carboxylic acid (2-dimethylamino-ethyl)-amide (2HCl) [listing 2 of 2 here]” is 5.3-fold higher in IC50: 300 nM for the first, 1600 nM for the second.

Going from “Dichloro(1,3-propanediamine)platinum (II) [listing 2 of 2 here]” to CISPLATIN [listing 2 of 2 here], the IC50 rises from 120 nM to 1200 nM (10-fold). The first is the more potent here.

“N,1-{2-[4-(Acridin-9-ylamino)-phenyl]-ethyl}-ethane-1,2-diammino-dichloroplatinum (II) [listing 2 of 2 here]” and “2-{3-[4-(Acridin-9-ylamino)-phenyl]-propyl}-propane-1,3-diammino-dichloroplatinum (II) (HCl) [listing 2 of 2 here]” are the same in IC50: 2900 nM for the first, 2900 nM for the second.

Compound “2-{4-[4-(Acridin-9-ylamino)-phenyl]-butyl}-propane-1,3-diammino-dichloroplatinum (II) (HCl) [listing 2 of 2 here]” has an IC50 of 7200 nM.

The compounds below were run on P388 (assay: Increase in mean survival of P388 (murine leukemia) inoculated mice following optimal dose.). Settings: Mus musculus.
Format: functional, organism-based

Compared with CISPLATIN [listing 1 of 2 here], “Dichloro(1,3-propanediamine)platinum (II) [listing 1 of 2 here]” is lower in ILS: 120% for the first, 31% for the second.

Going from “9-[4-(5-Amino-4-aminomethyl-pentyl)-phenylamino]-5-methoxy-acridine-4-carboxylic acid (2-dimethylamino-ethyl)-amide (2HCl) [listing 1 of 2 here]” to “DICHLORO(ETHYLENEDIAMINE) PLATINUM (II) [listing 1 of 2 here]”, the ILS rises from 28% to 70%.

Each compound was assayed on P388 (assay: Increase in mean survival of P388 (murine leukemia) inoculated mice; no effect.). Settings: Mus musculus.
Format: functional

With “2-{3-[4-(Acridin-9-ylamino)-phenyl]-propyl}-propane-1,3-diammino-dichloroplatinum (II) (HCl) [listing 1 of 2 here]” the ILS was “inactive”.
With `NCCNCCCCc1ccc(Nc2c3ccccc3nc3ccccc23)cc1` the ILS was “inactive”.
For `NCC(CN)CCCCc1ccc(Nc2c3ccccc3nc3ccccc23)cc1`, the ILS was “inactive”.
In the case of “2-{4-[4-(Acridin-9-ylamino)-phenyl]-butyl}-propane-1,3-diammino-dichloroplatinum (II) (HCl) [listing 1 of 2 here]”, the ILS is reported as “inactive”.
With `COc1cccc2c(Nc3ccc(CCCC(CN)CN)cc3)c3cccc(C(=O)NCCN(C)C)c3nc12` the ILS was “inactive”.
With `NCC(CN)Cc1ccc(Nc2c3ccccc3nc3ccccc23)cc1` the ILS was “inactive”.
With `NCC(CN)CCc1ccc(Nc2c3ccccc3nc3ccccc23)cc1` the ILS was “inactive”.
`NCCNCCc1ccc(Nc2c3ccccc3nc3ccccc23)cc1` was tested, and the ILS was “inactive”.
With `NCCNCCCc1ccc(Nc2c3ccccc3nc3ccccc23)cc1` the ILS was “inactive”.
In the case of `NCC(CN)CCCCCc1ccc(Nc2c3ccccc3nc3ccccc23)cc1`, the ILS is reported as “inactive”.
“N,1-{2-[4-(Acridin-9-ylamino)-phenyl]-ethyl}-ethane-1,2-diammino-dichloroplatinum (II) [listing 1 of 2 here]” was tested, and the ILS was “inactive”.
`NCC(CN)CCCc1ccc(Nc2c3ccccc3nc3ccccc23)cc1` was tested, and the ILS was “inactive”.
For `NCCNCCCCCc1ccc(Nc2c3ccccc3nc3ccccc23)cc1`, the ILS was “inactive”.

Each compound was assayed on P388 (assay: In vitro inhibition of Pt resistant P388 (murine leukemia) cell growth.). Settings: Mus musculus, P388.
Format: functional, cell-based, Mus musculus

Compared with `NCCNCCCCc1ccc(Nc2c3ccccc3nc3ccccc23)cc1`, `NCCNCCCCCc1ccc(Nc2c3ccccc3nc3ccccc23)cc1` is 2.3-fold higher in IC50: 1300 nM for the first, 3000 nM for the second.

`NCC(CN)CCCCc1ccc(Nc2c3ccccc3nc3ccccc23)cc1` and `NCC(CN)CCCCCc1ccc(Nc2c3ccccc3nc3ccccc23)cc1` are within 1.5-fold of each other in IC50: 680 nM for the first, 690 nM for the second.

`NCC(CN)Cc1ccc(Nc2c3ccccc3nc3ccccc23)cc1` and `NCC(CN)CCc1ccc(Nc2c3ccccc3nc3ccccc23)cc1` are within 1.5-fold of each other in IC50: 700 nM for the first, 630 nM for the second.

First: NCCNCCc1ccc(Nc2c3ccccc3nc3ccccc23)cc1
Second: NCCNCCCc1ccc(Nc2c3ccccc3nc3ccccc23)cc1
The IC50 of the first is 64-fold higher: 45000 nM for the first, 700 nM for the second. The second is the more potent here.

In the case of `NCC(CN)CCCc1ccc(Nc2c3ccccc3nc3ccccc23)cc1`, the IC50 is reported as 120 nM.

Same assay, conditions: p388

“DICHLORO(ETHYLENEDIAMINE) PLATINUM (II) [listing 2 of 2 here]” and “9-[4-(5-Amino-4-aminomethyl-pentyl)-phenylamino]-5-methoxy-acridine-4-carboxylic acid (2-dimethylamino-ethyl)-amide (2HCl) [listing 2 of 2 here]” are within 1.5-fold of each other in IC50: 1030 nM for the first, 1000 nM for the second.

Compared with “Dichloro(1,3-propanediamine)platinum (II) [listing 2 of 2 here]”, CISPLATIN [listing 2 of 2 here] is 14-fold higher in IC50: 380 nM for the first, 5500 nM for the second. The first is the more potent here.

“N,1-{2-[4-(Acridin-9-ylamino)-phenyl]-ethyl}-ethane-1,2-diammino-dichloroplatinum (II) [listing 2 of 2 here]” and “2-{3-[4-(Acridin-9-ylamino)-phenyl]-propyl}-propane-1,3-diammino-dichloroplatinum (II) (HCl) [listing 2 of 2 here]” are within 1.5-fold of each other in IC50: 2400 nM for the first, 1900 nM for the second.

Compound “2-{4-[4-(Acridin-9-ylamino)-phenyl]-butyl}-propane-1,3-diammino-dichloroplatinum (II) (HCl) [listing 2 of 2 here]” has an IC50 of 900 nM.
